Experimental data published in patent US6617136B2, “Biological sample processing methods and compositions that include surfactants” (3M Innovative Properties Company, priority 2001, dated 2003).

What was measured:
[1] = target: T1, AMPLITAQ DNA polymerase (Thermus aquaticus, UniProt P19821); experiment: PCR amplification of PERV protease fragment in the presence of dye/surfactant mixture; format: biochemical; conditions: dye at 0.1 or 0.2 mg/mL, agarose gel
T1 construct: purchased Applied Biosystems, Foster City, Calif
T1 sequence (P19821 whole entry, the tested form may be a part): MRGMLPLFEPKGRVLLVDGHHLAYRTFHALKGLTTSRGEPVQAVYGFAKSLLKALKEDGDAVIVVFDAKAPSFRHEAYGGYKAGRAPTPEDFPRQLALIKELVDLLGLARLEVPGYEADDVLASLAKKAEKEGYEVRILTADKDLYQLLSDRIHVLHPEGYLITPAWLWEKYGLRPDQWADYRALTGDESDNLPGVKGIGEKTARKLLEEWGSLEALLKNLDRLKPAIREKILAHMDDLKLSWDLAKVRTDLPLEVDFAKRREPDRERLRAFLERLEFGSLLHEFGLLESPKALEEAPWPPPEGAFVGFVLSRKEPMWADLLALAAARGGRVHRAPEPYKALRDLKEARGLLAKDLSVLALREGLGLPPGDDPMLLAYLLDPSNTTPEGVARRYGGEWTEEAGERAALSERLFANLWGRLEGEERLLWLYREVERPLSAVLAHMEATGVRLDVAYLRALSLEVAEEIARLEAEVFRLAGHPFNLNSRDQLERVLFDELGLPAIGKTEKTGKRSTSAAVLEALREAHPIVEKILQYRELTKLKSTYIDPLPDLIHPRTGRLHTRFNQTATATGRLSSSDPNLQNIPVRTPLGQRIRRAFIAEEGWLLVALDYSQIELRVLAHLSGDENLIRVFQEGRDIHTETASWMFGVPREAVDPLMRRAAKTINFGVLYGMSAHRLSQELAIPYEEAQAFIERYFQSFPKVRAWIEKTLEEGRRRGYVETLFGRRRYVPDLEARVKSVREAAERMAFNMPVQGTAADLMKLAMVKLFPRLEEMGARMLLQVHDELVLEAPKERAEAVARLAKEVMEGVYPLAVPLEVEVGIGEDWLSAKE
Method: Typically, a fresh stock solution of 5 milligrams (mg) of a water-insoluble near-infrared dye (NIR dye) was dissolved in 50 microliters (μL) of dimethylsulfoxide (DMSO) and brought up in water to a final volume of 1 milliliter (mL). This was then diluted out to various concentrations of dye. The diluted dye (typically 0.2 mg/mL) was then added to a surfactant solution (typically 4 wt-%) to form a complex. The complex was added to a PCR reaction.
PCR reactions were set up for a conserved sequence (327 bp) in the protease region of the genome of porcine endogenous retrovirus using a plasmid containing the PERV protease fragment, a forward primer and a reverse primer designed using a primer express program from Applied Biosystems, and AMPLITAQ DNA polymerase cocktail (commercially available from Applied Biosystems, Foster City, Calif.) and cycled in a thermocycler (9700, Applied Biosystems). The PCR reactions were typically carried out in 25-μL volumes. The NIR dye/surfactant mixture was added to the PCR cocktail to give the desired concentration of dye and surfactant in a total volume of 25 μL. […]
In order to find out the optimum concentration of surfactant for PCR with NIR dye (785 WS and SDA 8080), the surfactant concentration in PCR reaction was varied from 0.1 wt-% to 4 wt-%. The PCR product formed was quantitated using DNA 7500 Labchip kit in Agilent 2100 Bioanalyzer (Agilent Inc, Paloalto, Calif.). […]
A variety of dyes (NIR dyes such as IR782, IR768, SDA 2141, SDA8327, IR 830 WS, fluorescent dyes like oligreen and visible dyes like dichlorophenol, indophenol, saffranin, crystal violet, and commercially available food coloring) at typical concentrations of 0.1 or 0.2 mg/mL were allowed to interact with 4 wt-% PLURONIC F127 and each mixture was added to the PCR cocktail. The reaction was set up to amplify PERV protease fragment as described in Example 2 and the products of the reaction were analyzed by agarose gel electrophoresis.

[2] = Laser stability / photobleaching of dye on laser exposure; format: physicochemical
Method: An 813-nm diode laser source at 1.2W (1.9A) (Opto Power Corp., Tucson, Ariz.) was used to heat a 10-μL volume of near-IR dye at a concentration (0.1 mg/mL for 785 WS, 0.2 mg/mL for SDA 8080) to yield a 35° C. rise in temperature. The laser was manually turned on long enough for the temperature in a 10-μL well to increase by 35° C. (1-3 seconds) and was manually turned off when that level was attained. The temperature data was obtained using a thermocouple in the well, and the transmittance data was obtained via a power meter whose signals were digitized and graphically interpreted.
In another experiment, the 10 μL well was used to see if the dye/surfactant mixture could withstand laser cycling over a period of 30 cycles. The laser power was systematically varied from 60° C. to 94° C., 30 times.
Unlike in Example 8, some dyes and dye/surfactant complexes undergo photodegradation when exposed to laser beam. […] Specifically, in the case of 785 WS/BRIJ-97, the addition of ascorbic acid (typically 5 mg/mL) helped reduce the amount of photobleaching from 100% to 20% after 30 cycles. In some circumstances, rapid/controlled photodegradation may be desired. […] This would allow DNA tags (fluorescent or vis/IR) to be monitored at the end of the PCR reaction.

Row | amount of photobleaching ([2]; 785 WS/BRIJ-97 with ascorbic acid (typically 5 mg/mL), after 30 cycles) | effect of antioxidant on photobleaching ([2]; added to virtually any of the surfactants tested with 785 WS) | Compound | effect of dye alone on PCR [1] | effect of antioxidant on dye absorbance ([2]; added to SDA 8080)
1 | – | – | Cc1cc2nc3cc(C)c(N)cc3[n+](-c3ccccc3)c2cc1N.[Cl-] [saffranin] | inhibited PCR | –
2 | – | – | dichlorophenol | inhibited PCR | –
3 | – | – | CN(C)c1ccc(C(=C2C=CC(=[N+](C)C)C=C2)c2ccc(N(C)C)cc2)cc1 [crystal violet] | inhibited PCR | –
4 | 20% | reduced photobleaching significantly | O=C1O[C@H]([C@@H](O)CO)C(O)=C1O [ascorbic acid] | – | destroyed the absorbance in the visible and near-IR region of the dye
